# Values joined by “and” are separate entries in the source; they are usually repeats but may differ in a detail not shown here. Identical values can stand only once.
# Legend:
# [1] = Percent of compound in cirrhotic patients of spontaneous ascitic fluid infection (Group A and B); format: ADME; settings: human
# [2] = Percent of compound in cirrhotic patients of spontaneous ascitic fluid infection after dosing with normal antibiotics and lactose; format: ADME; settings: human, in vivo
# [3] = Percent of compound in cirrhotic patients of spontaneous ascitic fluid infection before dosing with normal antibiotics; format: ADME; settings: human, in vivo
# [4] = Percent of compound in cirrhotic patients of spontaneous ascitic fluid infection before dosing with normal antibiotics and lactose; format: ADME; settings: human, in vivo
# [5] = Percent of compound in cirrhotic patients of sterile ascitic fluid (Group C); format: ADME; settings: human
# [6] = Percent of compound in healthy individuals (Group D); format: ADME; settings: human
# [7] = Percent recovery of 100 ug/mL compound after administration in cirrhotic patients; format: ADME; settings: human, in vivo
# [8] = Percent recovery of 10 ug/mL compound after administration in cirrhotic patients; format: ADME; settings: human, in vivo
# [9] = Percent recovery of 500 ug/mL compound after administration in cirrhotic patients; format: ADME; settings: human, in vivo
# [10] = organism: Homo sapiens; experiment: Ratio of lactulose and mannitol in cirrhotic patients of spontaneous ascitic fluid infection (Group A and B); format: ADME, organism-based; settings: in vivo
# [11] = organism: Homo sapiens; experiment: Ratio of lactulose and mannitol in cirrhotic patients of sterile ascitic fluid (Group C); format: ADME, organism-based; settings: in vivo
# [12] = organism: Homo sapiens; experiment: Ratio of lactulose and mannitol in healthy individuals (Group D); format: ADME, organism-based; settings: in vivo
# [13] = system: Homo sapiens; experiment: Ratio of percent compound after dosing in cirrhotic patients of spontaneous ascitic fluid infection; format: ADME, organism-based; settings: in vivo
# [14] = system: Homo sapiens; experiment: Ratio of percent compound before and after dosing in cirrhotic patients of spontaneous ascitic fluid infection; format: ADME, organism-based; settings: in vivo
# [15] = system: Homo sapiens; experiment: Ratio of percent compound before dosing in cirrhotic patients of spontaneous ascitic fluid infection; format: ADME, organism-based; settings: in vivo
# [16] = Percent of compound in cirrhotic patients of spontaneous ascitic fluid infection after dosing with normal antibiotics; format: ADME; settings: human, in vivo
SMILES,Activity [1],Activity [2],Activity [3],Activity [4],Activity [5],Activity [6],Recovery [7],Recovery [8],Recovery [9],Ratio [10],Ratio [11],Ratio [12],Ratio [13],Ratio [14],Ratio [15],Activity [16]
OC[C@H]1O[C@@H](O[C@@H]2[C@@H](CO)O[C@](O)(CO)[C@H]2O)[C@H](O)[C@@H](O)[C@H]1O [LACTULOSE],0.00719%,0.0044%,0.007%,0.0071%,0.00476%,0.00177%,93.7%,93.1%,97%,0.1003,0.0715,0.0209,0.0814 and 0.0572,0.1009,0.1009,0.006%
OC[C@@H](O)[C@@H](O)[C@H](O)[C@H](O)CO [MANNITOL],0.0741%,0.0732%,0.0735%,0.0733%,0.0691%,0.0838%,95.2%,93.3%,97.1%,0.1003,0.0715,0.0209,0.0814 and 0.0572,0.0985,0.1009,0.0782%

# From ChEMBL document CHEMBL1148239, “Studies on intestinal permeability of cirrhotic patients by analysis lactulose and mannitol in urine with HPLC/RID/MS” (Bioorg Med Chem Lett, 2004)
